These results are taken from PMC10994559 (PLOS Neglected Tropical Diseases, 2024).

Structures are written as SMILES.

The test deals with E. histolytica. The test is described as follows: E. histolytica viability, ATP luminescence (Cell titer glo). Type of test: cell-based, Entamoeba histolytica. The conditions noted are these: Entamoeba histolytica, 48 h. As to the method: Entamoeba histolytica (strain B2-5) was passaged in TY-1 medium (Trypticase peptone BBL, Yeast extract BBL, glucose, NaCl, K2HPO4, KH2PO4, cysteine, ascorbic acid, ammonium iron citrate, adult bovine serum, Diamond tween 80, penicillin G, amikacin (pH:6.8)) and kept in 37°C incubator in completely filled tubes with closed lid.
Viability of E. histolytica was assayed via a luminescence assay based on ATP quantification in the live cells. Briefly, 2.5x10^4 cell/ml were exposed to 25 μM of compounds in 96 well plates (non-transparent, tissue culture treated, flat bottom; SPL Life Sciences) in triplicate for 48h. Plates were incubated in sealed anaerobic bags (Oxoid AGS) together with an Anaerogen compact bag (Thermo Scientific) and anaerobic indicator (Thermo Scientific) at 37°C. Then, Cell titer glo reagent (Promega) was added to the reaction (1:5) according to manufacturers’ instruction. After 15 min of orbital shaking, followed by 10 min incubation at RT, ATP-bioluminescence was quantified at RT using a Synergy H1 plate reader (Synergy H1, BioTek). Metronidazole was included as control drug in all the assays for E. histolytica. Test compounds indicating significant growth reduction in the primary screen were subjected to potency determination. These secondary screens were essentially carried out as detailed above, but with a 9 to 16-point concentration range of the test compounds spanning 0.01–100 μM.

As for `Cc1ncc([N+](=O)[O-])n1CCO` [Metronidazole, reference compound], the viability at 2.5 µM (read-out: Residual viability, E.histolytica (2.5 µM)) came to 71.6 ± 32.3%. In addition, the viability at 25 µM (read-out: Residual viability, E.histolytica (25 µM)) was -7.82 ± 3.48%. The EC50 (9 to 16-point dose response) was found to be 2.9 ± 1.8 µM.
